Source: patent publication US20110045001A1, “Transfection results of non-viral gene delivery systems by influencing of the innate immune system” (Biontex Laboratories GmbH, priority 2008, published 2011)
Where “and” joins values, the source holds several entries; their conditions need not be identical. Equal entries are not always repeated. Where two headings read alike, the source gives them in different places. Values belong to the compound of their own block, whether it stands above or below them.

Key:
[1] = system: HeLa-Luc cells; experiment: Vitality determination with trypan blue after siRNA transfection in the presence of TLR7/8 agonists (Example 9); details: 48 hours
Experimental: (§1) The cells are to be plated out at a cell count of 2×10^4 cells/cm^2 per well of 250 μl of complete medium.
(§2) First of all, the first 5 wells of the first three rows of a 48-well plate are each filled with 30 μl of PBS.
(§3) The stock solution of anti-luciferase-siRNA and the non-specific-control-siRNA is adjusted to a concentration of 1 pmol/10 μl with PBS. Then 10 μl of the working solution of the anti-luciferase-siRNA are pipetted into each of the first three wells of the first three rows of the 48-well plate. 10 μl of the working solution of the non-specific-control-siRNA are pipetted into each fourth well.
(§4) The Metafectene Pro reagent is diluted 1:300 with PBS. 20 μl of that dilution are introduced into each well containing siRNA.
(§5) The lipoplexes are then incubated for 20 minutes at room temperature. Then 250 μl of cell suspension are added to each well.
Two different agonists are added to the first 2 columns of the two 48-well plates, with three different working concentrations of the agonists being used. The agonists are in lyophilised form. They are dissolved with endotoxin-free water to form stock solutions having the concentration 100 μg/ml. The stock solutions are each diluted 1:10 with water to give working solutions. […]
After the addition of the agonists, the two 48-well plates are incubated in a CO2 incubator for 48 hours.
After an incubation period of 48 hours, the cells of a plate are trypsinised and, using a Neubauer counting chamber, vitality measurement is carried out for each well with trypan blue.

[2] = system: HeLa-Luc cells; experiment: Luciferase assay after siRNA transfection in the presence of TLR7/8 agonists (Example 9); format: cell-based, human; details: imiquimod 0.25 μg/ml final concentration (row A, column 1) + anti-luciferase-siRNA/Metafectene Pro; 48 hours
Experimental: as §1, §2, §3, §4, §5
Two different agonists are added to the first 2 columns of the two 48-well plates, with three different working concentrations of the agonists being used. The agonists are in lyophilised form. They are dissolved with endotoxin-free water to form stock solutions having the concentration 100 μg/ml. The stock solutions are each diluted 1:10 with water to give working solutions.
Of the imiquimod working solution, 0.78 μl (=0.25 μg/ml final concentration) are pipetted into A1, 15.5 μl (=5 μg/ml) into A2 and 31 μl (=10 μg/ml) into A3. […]

[3] = system: HeLa-Luc cells; experiment: Luciferase assay after anti-luciferase-siRNA transfection in the presence of kinase inhibitors (Example 8); details: anti-luciferase-siRNA 1 pMol/well, Metafectene Pro
[4] = system: HeLa cells; details: transfection repeated on 3rd day, pre-incubation 2 hours, development time 10 min
Experimental: 1st day: HeLa cells are sown in a 48-well plate, the cells being plated out at a cell count of 0.8*10^5 cells per well of 250 μl of complete medium (10% FCS). […] 1 mg of inhibitor is dissolved in 100 μl of DMSO (stock solution). Dilution is then carried out with PBS 1:20 (working solution). […] The lipoplexes are then prepared. […] The two solutions are then mixed and incubated for 15 min. Finally, 50 μl of the lipoplex solution are added to each well. […] Analogous to Example 1 (with half amounts)

[5] = system: HeLa cells; experiment: β-Galactosidase reporter gene assay after single or repetitive transfection with antagonist (Example 4); format: cell-based, human; details: development time 10 min; for β-Galactosidase assay absorption, average value of duplicates 1&2/2: single transfection
Experimental: 1st day: Analogous to Example 3.
The antagonist is adjusted to a concentration of 0.025 μg/μl with PBS.
The lipoplexes are then prepared.
Analogously to Example 3.
Analogous to Example 1 (with half amounts)

[6] = repetitive transfection, antagonist 0.0625 μg per well
[7] = repetitive transfection, antagonist 0.125 μg per well
[8] = repetitive transfection, antagonist 0.250 μg per well
[9] = repetitive transfection, antagonist 0.375 μg per well
[10] = repetitive transfection, antagonist 0.75 μg per well

Vitality (trypan blue staining) ([1]; Imiquimod 0.5 μg/ml + anti-luciferase-siRNA/Metafectene Pro): 98.6% | Vitality (trypan blue staining) ([1]; Imiquimod 5 μg/ml + anti-luciferase-siRNA/Metafectene Pro): 88.7% | Vitality (trypan blue staining) ([1]; Imiquimod 10 μg/ml + anti-luciferase-siRNA/Metafectene Pro): 88.6%
Compound: CC(C)Cn1cnc2c(N)nc3ccccc3c21 [Imiquimod, 1-(2-methylpropyl)-1H-imidazo[4,5-c]quinoline-4-amine]
Luciferase assay, average value of 3×3 measurements [2]: 676 RLU/μl cell extract/sec

Compound: C[S+]([O-])c1ccc(-c2nc(-c3ccncc3)c(-c3ccc(F)cc3)[nH]2)cc1 (stereo not shown) [SB203580]
Luciferase assay, average value of 3×3 measurements ([3]; single transfection, SB203580 5 μM): 693 RLU/μl ell extract/sec | Luciferase assay, average value of 3×3 measurements ([3]; single transfection, SB203580 10 μM): 747 RLU/μl ell extract/sec | Luciferase assay, average value of 3×3 measurements ([3]; single transfection, SB203580 20 μM): 630 RLU/μl ell extract/sec | Luciferase assay, average value of 3×3 measurements ([3]; single transfection, SB203580 30 μM): 671 RLU/μl ell extract/sec | Luciferase assay, average value of 3×3 measurements ([3]; single transfection, SB203580 40 μM): 669 RLU/μl ell extract/sec | Luciferase assay, average value of 3×3 measurements ([3]; transfection repeated on 3rd day, SB203580 5 μM): 696 RLU/μl ell extract/sec | Luciferase assay, average value of 3×3 measurements ([3]; transfection repeated on 3rd day, SB203580 10 μM): 656 RLU/μl ell extract/sec | Luciferase assay, average value of 3×3 measurements ([3]; transfection repeated on 3rd day, SB203580 20 μM): 617 RLU/μl ell extract/sec | Luciferase assay, average value of 3×3 measurements ([3]; transfection repeated on 3rd day, SB203580 30 μM): 587 RLU/μl ell extract/sec | Luciferase assay, average value of 3×3 measurements ([3]; transfection repeated on 3rd day, SB203580 40 μM): 610 RLU/μl ell extract/sec

Compound: N#CC(=C(/N)Sc1ccccc1N)/C(C#N)=C(/N)Sc1ccccc1N [U0126, 1,4-diamino-2,3-dicyano-1,4-bis(o-aminophenylmercapto)butadiene]
Luciferase assay, average value of 3×3 measurements ([3]; single transfection, U0126 75 μM): 260 RLU/μl ell extract/sec | β-Galactosidase assay absorption, average value of 3 measurements ([4]; inhibitor 5 μM (well E)): 0.72 | β-Galactosidase assay absorption, average value of 3 measurements ([4]; inhibitor 10 μM (well D)): 0.92 | β-Galactosidase assay absorption, average value of 3 measurements ([4]; inhibitor 25 μM (well C)): 0.79 | β-Galactosidase assay absorption, average value of 3 measurements ([4]; inhibitor 50 μM (well B)): 0.90 | β-Galactosidase assay absorption, average value of 3 measurements ([4]; inhibitor 75 μM (well A)): 0.97

Compound: Human Interleukin-1 Receptor Antagonist (IL1-ra Human): Human interleukin-1 receptor antagonist, Biomol, Cat. No. 54592
β-Galactosidase assay absorption, average value of 3 measurements [5, 6]: 0.791 and 1.021 | β-Galactosidase assay absorption, average value of duplicates 3&4/2 [5, 6]: 0.906 | β-Galactosidase assay absorption, average value of 3 measurements [5, 7]: 0.856 and 1.185 | β-Galactosidase assay absorption, average value of duplicates 3&4/2 [5, 7]: 1.020 | β-Galactosidase assay absorption, average value of 3 measurements [5, 8]: 1.035 and 1.026 | β-Galactosidase assay absorption, average value of duplicates 3&4/2 [5, 8]: 1.030 | β-Galactosidase assay absorption, average value of 3 measurements [5, 9]: 1.076 and 1.081 | β-Galactosidase assay absorption, average value of duplicates 3&4/2 [5, 9]: 1.078 | β-Galactosidase assay absorption, average value of 3 measurements [5, 10]: 1.161 and 1.207 | β-Galactosidase assay absorption, average value of duplicates 3&4/2 [5, 10]: 1.184 | β-Galactosidase assay absorption, average value of 3 measurements ([5]; single transfection (columns 1, 2), antagonist 0.0625 μg per well, pre-incubation 7 hours): 0.427 and 0.448 | β-Galactosidase assay absorption, average value of 3 measurements ([5]; single transfection (columns 1, 2), antagonist 0.125 μg per well, pre-incubation 7 hours): 0.415 and 0.435 | β-Galactosidase assay absorption, average value of 3 measurements ([5]; single transfection (columns 1, 2), antagonist 0.250 μg per well, pre-incubation 7 hours): 0.393 and 0.439 | β-Galactosidase assay absorption, average value of 3 measurements ([5]; single transfection (columns 1, 2), antagonist 0.375 μg per well, pre-incubation 7 hours): 0.392 and 0.460 | β-Galactosidase assay absorption, average value of 3 measurements ([5]; single transfection (columns 1, 2), antagonist 0.75 μg per well, pre-incubation 7 hours): 0.443 and 0.455 | β-Galactosidase assay absorption, average value of duplicates 1&2/2 ([5]; antagonist 0.0625 μg per well): 0.437 | β-Galactosidase assay absorption, average value of duplicates 1&2/2 ([5]; antagonist 0.125 μg per well): 0.425 | β-Galactosidase assay absorption, average value of duplicates 1&2/2 ([5]; antagonist 0.250 μg per well): 0.416 | β-Galactosidase assay absorption, average value of duplicates 1&2/2 ([5]; antagonist 0.375 μg per well): 0.426 | β-Galactosidase assay absorption, average value of duplicates 1&2/2 ([5]; antagonist 0.75 μg per well): 0.449
